Tested on: NCI-H460 cells
Assay: Antiproliferative activity on NCI-H460 cell line (CellTiter-Glo)
Type: cell-based
Settings: Homo sapiens; NCI-H460 (lung cancer, high AKR1C3); 2 hours with drug, then 70 hours drug-free
Description: RPMI-1640 medium and penicillin/streptomycin antibiotics were purchased from Vicente, and fetal bovine serum was purchased from Biosera. CellTiter-Glo (Cell Viability Chemiluminescence Detection Reagent) reagent was purchased from Promega. The NCI-H460 cell line was purchased from Nanjing Kebai Biotechnology Co., Ltd. Nivo Multimode Plate Reader (PerkinElmer).
NCI-H460 cells (lung cancer) were seeded in a 96-well plate, 80 μL of cell suspension per well, which contained 4000 NCI-H460 cells. The cell plate was incubated overnight in a carbon dioxide incubator. The compound to be tested was diluted 5-fold to the ninth concentration with a multi-channel pipette, that is, the compound to be tested was diluted from 2 mM to 5.2 nM, and an experiment for the sample assayed in duplicate was set up. 78 μL of medium was added to the middle plate, and 2 μL of the gradient-diluted compound per well was transferred to the middle plate according to the corresponding position, then 20 μL per well was transferred to the cell plate after mixing. […] Another cell plate was prepared, and the signal value was read as the maximum value (Max value in the following equation) on the day of drug addition to participate in data analysis. […] The multimode plate reader was used for readings. […]. […]

SMILES | IC50 [nM]
O=[N+]([O-])c1cc2c(cc1Oc1cccnc1F)C(OP(=O)(N1CC1)N1CC1)COC2 (centres unmarked) [Compound 1] | 3.8
O=[N+]([O-])c1cc2c(cc1Oc1ccccc1F)C(OP(=O)(N1CC1)N1CC1)COC2 (centres unmarked) [Compound 2] | 21.6

— US12435101B2, “Isochroman compound” (Zhejiang Yangli Pharmaceutical Technology Co., Ltd., priority 2020, dated 2025)
